Data on one compound can be found in BindingDB's records for doi:10.1021/jm800739m (University of Southern California, 2009).

The target in this assay is DNA-(apurinic or apyrimidinic site) endonuclease (Homo sapiens, UniProt P27695). The experiment in a line: APE1 Inhibition Assay. Conditions: pH 7.5; 30 °C. As for the experimental part: To determine the extent of abasic residue cleavage by APE1, recombinant APE1 was preincubated with the potential inhibitors in reaction buffer. Then, the 5-end 32P-labeled oligonucleotide substrate was added. The conversion of incision product was quantitated using PhosphorImager / ImageQuant 5.2 system. The IC50 values were determined by plotting the logarithm of drug concentration against percent inhibition of enzymatic activity. The optimum concentration of APE1 protein in the assay is the concentration at which there is complete conversion of the abasic-site containing oligonucleotide substrate to its cleaved product without subsequent exonuclease activity.
Sequence of DNA-(apurinic or apyrimidinic site) endonuclease (P27695 whole entry): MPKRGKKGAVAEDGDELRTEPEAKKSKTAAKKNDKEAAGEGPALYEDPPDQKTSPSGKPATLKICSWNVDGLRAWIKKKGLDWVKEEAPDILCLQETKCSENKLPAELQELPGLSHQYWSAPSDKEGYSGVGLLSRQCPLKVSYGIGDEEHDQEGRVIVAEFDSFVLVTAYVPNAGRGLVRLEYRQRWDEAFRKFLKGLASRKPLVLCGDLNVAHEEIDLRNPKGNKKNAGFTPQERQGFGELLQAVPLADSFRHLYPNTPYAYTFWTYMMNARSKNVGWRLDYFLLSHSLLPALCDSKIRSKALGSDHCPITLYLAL

As to `O=C(O)c1ccc(Sc2ccc(S(=O)(=O)c3ccc(C(=O)O)c(C(=O)O)c3)cc2)cc1` [4-({4-[(4-carboxyphenyl)sulfanyl]benzene}sulfonyl)benzene-1,2-dicarboxylic acid], it took 4 µM to reach half-maximal inhibition (IC50).
